Data as given in patent US10131652B2, “Pyrimidinyloxy benzene derivatives as herbicides” (E. I. DU PONT DE NEMOURS AND COMPANY, priority 2014, dated 2018).

What was measured:
Type in all cases: in vivo
[1] = test system: galium (catchweed bedstraw, Galium aparine); assay: Test B postemergence plant response
How it was run: (§1)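 Visual injury ratings, 0 = no effect to 100 = complete control, versus untreated controls approximately 10 days after postemergence spraying in greenhouse. Plants were at one- to two-leaf stage, 2 to 10 cm tall, in loam soil/sand blend; a dash denotes no result.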

[2] = test system: blackgrass (Alopecurus myosuroides); assay: Test B postemergence plant response
How it was run: as §1

[3] = test system: barnyardgrass (Echinochloa crus-galli); assay: Test C flooded paddy test plant response; details: Flood, 250 g ai/ha; scale of 0 to 100 where 0 is no effect and 100 is complete control; 13 to 15 days
How it was run: (§2)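 2-leaf plants; flood 3 cm, cpd into paddy water; greenhouse 13–15 d; visual score vs untreated, 0 = no effect, 100 = complete control; dash = no result.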

[4] = test system: ducksalad (Heteranthera limosa); assay: Test C flooded paddy test plant response; details: Flood, 250 g ai/ha; scale of 0 to 100 where 0 is no effect and 100 is complete control; 13 to 15 days
How it was run: as §2

[5] = test system: small-flower umbrella sedge (Cyperus difformis); assay: Test C flooded paddy test plant response; details: Flood, 250 g ai/ha; scale of 0 to 100 where 0 is no effect and 100 is complete control; 13 to 15 days
How it was run: as §2

[6] = test system: rice (Oryza sativa); assay: Test C flooded paddy test plant response; details: Flood, 250 g ai/ha; scale of 0 to 100 where 0 is no effect and 100 is complete control; 13 to 15 days
How it was run: as §2

[7] = test system: corn (Zea mays); assay: Test B pre-/postemergence plant response
How it was run: (§3)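 Visual injury scores on a 0–100 scale (100 = complete control) relative to untreated plants, taken about 10 days post-treatment in greenhouse. Treatments were a directed preemergence soil spray and a postemergence spray at one- to two-leaf stage, using surfactant-containing solvent formulation.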

[8] = test system: Italian ryegrass (Lolium multiflorum); assay: Test B pre-/postemergence plant response
How it was run: as §3

[9] = test system: barnyardgrass (Echinochloa crus-galli); assay: Test B pre-/postemergence plant response
How it was run: as §3

[10] = test system: ragweed (common ragweed, Ambrosia elatior); assay: Test B pre-/postemergence plant response
How it was run: as §3

[11] = test system: kochia (Kochia scoparia); assay: Test B pre-/postemergence plant response
How it was run: as §3

[12] = test system: pigweed (Amaranthus retroflexus); assay: Test B pre-/postemergence plant response
How it was run: as §3

[13] = test system: giant foxtail (Setaria faberii); assay: Test B pre-/postemergence plant response
How it was run: as §3

[14] = test system: wheat (Triticum aestivum); assay: Test B pre-/postemergence plant response
How it was run: as §3

[15] = 125 g ai/ha, postemergence, 0 to 100 scale, 0 no effect, 100 complete control
[16] = Postemergence, 31 g ai/ha, 0 to 100 scale (0 no effect, 100 complete control)
[17] = 31 g ai/ha, Preemergence, 0 to 100 scale where 0 is no effect and 100 is complete control
[18] = Preemergence, 125 g ai/ha, 0 to 100 scale (0 no effect, 100 complete control)

SMILES | Plant response rating, Galium [1, 15] | Plant response rating, Galium [1, 16] | Plant response rating, Blackgrass [2, 15] | Plant response rating, Blackgrass [2, 16] | Barnyardgrass plant response rating [3] | Ducksalad plant response rating [4] | Sedge, Umbrella plant response rating [5] | Rice plant response rating [6] | Plant response rating, Corn [7, 15] | Plant response rating, Corn [7, 16] | Plant response rating, Ryegrass, Italian [8, 17] | Plant response rating, Ryegrass, Italian [8, 15] | Plant response rating, Ryegrass, Italian [8, 16] | Ryegrass, Italian plant response rating [8, 18] | Plant response rating, Barnyardgrass [9, 17] | Plant response rating, Barnyardgrass [9, 15] | Plant response rating, Barnyardgrass [9, 16] | Barnyardgrass plant response rating [9, 18] | Plant response rating, Ragweed [10, 17] | Plant response rating, Ragweed [10, 15] | other results
Brc1cnc(Oc2ccccc2-c2ccsc2)nc1 [Compound 232] | 0 | 0 | 0 | 0 | 0 | 0 | 0 | 0 | 0 | 0 | 0 | 0 | 0 | 0 | 0 | 0 | 0 | 20 | 0 | 0 | Plant response rating, Ragweed [10, 16]: 0; Ragweed plant response rating [10, 18]: 0; Plant response rating, Kochia [11, 17]: 0; Plant response rating, Kochia [11, 15]: 0; Plant response rating, Kochia [11, 16]: 0; Kochia plant response rating [11, 18]: 0; Plant response rating, Pigweed [12, 17]: 20; Plant response rating, Pigweed [12, 15]: 40; Plant response rating, Pigweed [12, 16]: 10; Pigweed plant response rating [12, 18]: 30; Plant response rating, Foxtail, Giant [13, 17]: 0; Plant response rating, Foxtail, Giant [13, 15]: 0; Plant response rating, Foxtail, Giant [13, 16]: 0; Foxtail, Giant plant response rating [13, 18]: 10; Plant response rating, Wheat [14, 15]: 0; Plant response rating, Wheat [14, 16]: 0
Clc1cnc(Oc2ccccc2-c2ccns2)nc1 [Compound 233] | 0 | 0 | 10 | 0 | 0 | 0 | 0 | 0 | 10 | 0 | 0 | 0 | 0 | 0 | 0 | 10 | 0 | 0 | 0 | 0 | Plant response rating, Ragweed [10, 16]: 0; Ragweed plant response rating [10, 18]: 0; Plant response rating, Kochia [11, 17]: 0; Plant response rating, Kochia [11, 15]: 0; Plant response rating, Kochia [11, 16]: 0; Kochia plant response rating [11, 18]: 0; Plant response rating, Pigweed [12, 17]: 0; Plant response rating, Pigweed [12, 15]: 20; Plant response rating, Pigweed [12, 16]: 0; Pigweed plant response rating [12, 18]: 0; Plant response rating, Foxtail, Giant [13, 17]: 0; Plant response rating, Foxtail, Giant [13, 15]: 0; Plant response rating, Foxtail, Giant [13, 16]: 0; Foxtail, Giant plant response rating [13, 18]: 0; Plant response rating, Wheat [14, 15]: 0; Plant response rating, Wheat [14, 16]: 0
Brc1cnc(Oc2ccccc2-c2ccns2)nc1 [Compound 234] | 0 | 0 | 10 | 0 | 0 | 0 | 0 | 0 | 10 | 0 | 0 | 0 | 0 | 0 | 0 | 0 | 0 | 0 | 0 | 10 | Plant response rating, Ragweed [10, 16]: 0; Plant response rating, Kochia [11, 17]: 0; Plant response rating, Kochia [11, 15]: 0; Plant response rating, Kochia [11, 16]: 0; Kochia plant response rating [11, 18]: 0; Plant response rating, Pigweed [12, 17]: 0; Plant response rating, Pigweed [12, 15]: 20; Plant response rating, Pigweed [12, 16]: 0; Pigweed plant response rating [12, 18]: 0; Plant response rating, Foxtail, Giant [13, 17]: 0; Plant response rating, Foxtail, Giant [13, 15]: 0; Plant response rating, Foxtail, Giant [13, 16]: 0; Foxtail, Giant plant response rating [13, 18]: 0; Plant response rating, Wheat [14, 15]: 0; Plant response rating, Wheat [14, 16]: 0
CC(C)(F)c1cc(-c2ccccc2Oc2ncc(Cl)cn2)no1 [Compound 236] | 100 | 30 | 40 | 20 | 0 | 75 | 40 | 0 | 30 | 0 | 0 | 20 | 0 | 30 | 10 | 30 | 0 | 80 | 0 | 20 | Plant response rating, Ragweed [10, 16]: 0; Ragweed plant response rating [10, 18]: 0; Plant response rating, Kochia [11, 17]: 30; Plant response rating, Kochia [11, 15]: 90; Plant response rating, Kochia [11, 16]: 20; Kochia plant response rating [11, 18]: 100; Plant response rating, Pigweed [12, 17]: 60; Plant response rating, Pigweed [12, 15]: 70; Plant response rating, Pigweed [12, 16]: 30; Pigweed plant response rating [12, 18]: 100; Plant response rating, Foxtail, Giant [13, 17]: 10; Plant response rating, Foxtail, Giant [13, 15]: 30; Plant response rating, Foxtail, Giant [13, 16]: 0; Foxtail, Giant plant response rating [13, 18]: 90; Plant response rating, Wheat [14, 15]: 20; Plant response rating, Wheat [14, 16]: 0
Cn1nc(-c2ccccc2Oc2ncc(Cl)cn2)cc1C(F)(F)F [Compound 237] | 0 | 0 | 0 | 0 | 0 | 0 | 0 | 0 | 0 | 0 | 0 | 0 | 0 | 0 | 0 | 0 | 0 | 0 | 0 | 0 | Plant response rating, Ragweed [10, 16]: 0; Ragweed plant response rating [10, 18]: 0; Plant response rating, Kochia [11, 17]: 0; Plant response rating, Kochia [11, 15]: 0; Plant response rating, Kochia [11, 16]: 0; Kochia plant response rating [11, 18]: 0; Plant response rating, Pigweed [12, 17]: 0; Plant response rating, Pigweed [12, 15]: 0; Plant response rating, Pigweed [12, 16]: 0; Pigweed plant response rating [12, 18]: 0; Plant response rating, Foxtail, Giant [13, 17]: 0; Plant response rating, Foxtail, Giant [13, 15]: 0; Plant response rating, Foxtail, Giant [13, 16]: 0; Foxtail, Giant plant response rating [13, 18]: 0; Plant response rating, Wheat [14, 15]: 0; Plant response rating, Wheat [14, 16]: 0
Cc1csc(-c2c(C#N)cccc2Oc2ncc(Cl)cn2)c1 [Compound 238] | 40 | 0 | 0 | 0 | 20 | 45 | 65 | 15 | 20 | 0 | 0 | 0 | 0 | 0 | 0 | 30 | 0 | 40 | 0 | 0 | Plant response rating, Ragweed [10, 16]: 0; Ragweed plant response rating [10, 18]: 0; Plant response rating, Kochia [11, 17]: 0; Plant response rating, Kochia [11, 15]: 80; Plant response rating, Kochia [11, 16]: 20; Kochia plant response rating [11, 18]: 0; Plant response rating, Pigweed [12, 17]: 0; Plant response rating, Pigweed [12, 15]: 20; Plant response rating, Pigweed [12, 16]: 10; Pigweed plant response rating [12, 18]: 10; Plant response rating, Foxtail, Giant [13, 17]: 0; Plant response rating, Foxtail, Giant [13, 15]: 10; Plant response rating, Foxtail, Giant [13, 16]: 0; Foxtail, Giant plant response rating [13, 18]: 20; Plant response rating, Wheat [14, 15]: 0; Plant response rating, Wheat [14, 16]: 0
